According to patent US20050096282A1, “Adeno-associated virus-delivered ribozyme compositions and methods for the treatment of retinal diseases” (priority 1997, published 2005):

Columns and labels:
HREC [1] = experiment: HREC proliferation, cell count; assay type: cell-based, human; details: for Proliferation Cell Count: HREC, agonists 10 μm, with NECA: CPX 20 nM, SCH 60 nM, XAC, Enprofylline, JW V108 10 μm, * p < 0.005 vs untreated; for increase in HREC number: agonist alone, 48 hr
Protocol: (§1) The subtype of adenosine receptor (A2B) that mediates the proliferative effect of adenosine on HREC was determined by the following studies. […] In contrast, neither the A2A adenosine receptor agonist CGS21680 (2-p-(2-carboxyethyl) phenethylamino-5′-N-ethylcarboxamidoadenosine) at concentrations ranging from 10 nM to 10 μM, nor the A1 adenosine receptor agonist CPA (N^6-cyclopentyladenosine) at concentrations ranging from 10 nM to 10 μM increased BrdU incorporation by HRECs. […] In contrast, neither the selective A1 adenosine receptor antagonist CPX (8-cyclopentyl-1,3-dipropylxanthine) at 20 nM, nor the selective A2A adenosine receptor antagonist SCH58261 (5-amino-7-(2-phenylethyl)-2-(2-furyl)-pyrazolo(4,3-E)-1,2,4-trizolo(1,5-c) pyrimidine) at 60 nM attenuated the stimulatory effect of NECA on BrdU incorporation by HRECs. These findings indicate that the proliferative effects of NECA are mediated by the A2B adenosine receptor in HREC in culture (Table 3).
The data for cell counts were consistent with those for BrdU incorporation. […] These compounds, like XAC, blocked the proliferative effects of NECA as measured by cell counts, supporting that the proliferative effects of NECA on HREC are mediated by the adenosine A2B receptor (Table 3).

HREC [2] = experiment: BrdU incorporation (DNA synthesis) in HRECs; assay type: cell-based, human; details: for Proliferation BrdU Incorporation: HREC, agonists 10 μm, with NECA: CPX 20 nM, SCH 60 nM, XAC 10 μm, * p < 0.005 vs untreated
Protocol: as §1

HREC [3] = experiment: VEGF protein in HREC after adenosine receptor agonists and antagonists; assay type: cell-based, human; details: agonists 10 μm, with NECA: CPX 20 nM, SCH 60 nM, XAC 10 μm, * p < 0.005 vs untreated
HREC [4] = experiment: VEGF mRNA in HREC after adenosine receptor agonists and antagonists; assay type: cell-based, human; details: agonists 10 μm, with NECA: CPX 20 nM, SCH 60 nM, XAC 10 μm, * p < 0.005 vs untreated
HREC [5] = experiment: ERK/MAPK activation in HREC, Western blot; assay type: cell-based, human; details: for ERK activation by agonist: agonist alone; for effect on NECA-stimulated ERK activation: HREC pretreated with antagonist or inhibitor, then NECA
Protocol: HREC were serum-starved for 24 hr and pre-treated for 20 min with 1 U/mL adenosine deaminase prior to adding NECA. Activated ERK/MAPK was visualized on Western blots by enhanced chemiluminescence using EC10 monoclonal antibody;
HRECs were serum-starved for 24 hr and pre-treated with adenosine deaminase (ADA, 1 U/mL) for 20 min, incubated with the antagonists in the presence of ADA for 10 min. NECA (1 nM-10 μM, 10 min) was used to activate ERK.
In order to determine the intracellular signaling pathways activated by NECA that regulate ERK activity, we pretreated cells for 30 min with the ERK/MPAK kinase (MEK) inhibitor PD98059 or the PKA inhibitor H-89 and stimulated with NECA for 5 min.
Cells were pre-treated with both antagonists for 10 min and stimulated with increasing concentrations of NECA.

HREC [6] = experiment: cAMP content of intact HRECs; assay type: cell-based, human
Source text: The cAMP content of intact HRECs following treatment with adenosine receptor agonists and antagonists was next examined. […] The effect of selective A1 and A2A adenosine receptor antagonists on NECA-induced accumulation of cAMP was also examined.

HREC [7] = experiment: CREB phosphorylation at Ser133 in HREC, western blot; assay type: cell-based, human; details: HREC pretreated
Source text: Phosphorylation of cAMP response element binding protein (CREB) at Ser^133 was examined following NECA stimulation in order to determine whether activation of cAMP pathways by NECA occurred independently of ERK activation. Cells were pretreated with PD98059 or H-89 and assayed for active CREB by western blot.

[8] = system: oxygen-induced retinal neovascularization; experiment: Oxygen-induced retinal neovascularization in the neonatal mouse; assay type: in vivo; details: daily IP 30 mg/Kg body weight; vs uninjected control
Source text: The potential efficacy of administering adenosine receptor antagonists to reduce retinal neovascularization brought on by ischemic insult was examined. In the neonatal mouse model of oxygen-induced retinopathy, 7-day-old mice are placed with their nursing dams in a 75% oxygen atmosphere for 5 days. Upon return to normal air, these mice develop retinal neovascularization, with peak development occurring 5 days after their return to normoxia. During this time, the animals receive by daily intaperitoneal injection a pharmacologically relevant concentration of adenosine receptor antagonist or vehicle (0.15% vol./vol. DMSO in normal saline) alone. Exemplary antagonists tested include XAC and 3-n-propylxanthine (Enprofylline), and JW V108, both at a concentration of 30 mg/Kg of body weight. […]
Individuals masked to the identity of treatment counted all cell nuclei above the inner limiting membrane for all 20 sections from each eye. […] The efficacy of treatment with a particular antagonist was then calculated as the fraction of total nuclei in antagonist or vehicle treatment over total nuclei in uninjected control. […] Whole retinas from these eyes were then flat-mounted for qualitative assessment of retinal neovascularization by fluorescence microscopy.

HREC [9] = experiment: HREC chemotaxis; assay type: cell-based, human
Source text: The role of the A2B receptor was further characterized by examining the effects of the A2B antagonists JW V108 and Enprofylline on HREC chemotaxis, capillary tube formation and signal transduction pathways following stimulation with the adenosine analogue NECA.

Row | Structure (SMILES) | Proliferation Cell Count (HREC [1]) | increase in HREC number (HREC [1]) | Proliferation BrdU Incorporation (HREC [2]) | VEGF Protein (HREC [3]) | VEGF MRNA (HREC [4]) | ERK activation by agonist (HREC [5]; HREC) | CAMP Content (HREC [6]; HREC, agonists 10 μm, with NECA: CPX 20 nM, SCH 60 nM, XAC 10 μm, * p < 0.005 vs untreated) | effect on cAMP content of HREC (HREC [6]; agonist alone, concentrations up to 100 μM) | basal ERK activation (HREC [5]; HREC, CGS 1-10 μM, H-89 30 min pretreatment) | inhibition of increase in cell number induced by NECA (HREC [1]; 10 μM NECA) | attenuation of NECA-stimulated BrdU incorporation by HRECs (HREC [2]; XAC 10 μM, CPX 20 nM, SCH58261 60 nM) | CREB activation (phosphorylation) following NECA stimulation (HREC [7]) | inhibition of NECA-induced increase in cAMP content in HRECs (HREC [6]; NECA 10 μM) | inhibition of oxygen-induced retinal neovascularization [8] | effect on NECA-stimulated ERK activation (HREC [5]) | inhibition of NECA-induced HREC chemotaxis (HREC [9])
1 | OC[C@H]1O[C@@H](n2cnc3c(NC4CCCC4)ncnc32)[C@H](O)[C@@H]1O [CPA, N^6-cyclopentyladenosine] | 0.9 ± 0.04 fold change vs. untreated | neither CGS21680 nor CPA caused an increase in cell number | 0.8 ± 0.06 fold change vs. untreated | 1.1 ± 0.27 fold change vs. untreated | 1.1 ± 0.22 fold change vs. untreated | capable of stimulating ERK |  |  |  |  |  |  |  |  |  | 
2 | CCNC(=O)[C@H]1O[C@@H](n2cnc3c(N)nc(NCCc4ccc(CCC(=O)O)cc4)nc32)[C@H](O)[C@@H]1O [CGS21680, 2-p-(2-carboxyethyl) phenethylamino-5′-N-ethylcarboxamidoadenosine] | 1.1 ± 0.03 fold change vs. untreated | neither CGS21680 nor CPA caused an increase in cell number | 1.0 ± 0.08 fold change vs. untreated | 1.3 ± 0.20 fold change vs. untreated | 0.8 ± 0.37 fold change vs. untreated | did not activate ERK | 1.1 ± 1.02 fold change vs. untreated | no significant effect | reduced the basal ERK levels |  |  |  |  |  |  | 
3 | CCCn1c(=O)c2[nH]c(-c3ccc(OCC(=O)NCCN)cc3)nc2n(CCC)c1=O [XAC, xanthine amine congener] |  |  |  |  |  |  |  |  |  | significantly inhibited | completely prevented | blocked CREB phosphorylation | completely blocked | 54% | decreased ERK activation by high concentrations of NECA | 
4 | CCCn1c(=O)[nH]c(=O)c2[nH]cnc21 [Enprofylline, 3-n-propylxanthine] |  |  |  |  |  |  |  |  |  |  |  |  |  | 70% | completely abolished ERK activation | inhibited
